In patent US10807968B2, “Substituted 2-(het)arylimidazolylcarboxyamides as pesticides” (Bayer CropScience Aktiengesellschaft, priority 2016, dated 2020):
Read-outs that look alike come from different tables or passages of the source.

Columns and labels:
Myzus persicae [1] = assay: Myzus persicae - oral test; type: in vivo; conditions: after 5 days; for pest or weed control at 20 ppm: Myzus persicae, 120 h, read-out: efficacy in % (aphids killed); for efficacy in % (aphids killed): 20 ppm
Description: Solvent: 100 parts by weight of acetone
Subsequently, the plates are sealed with parafilm, which a mixed population of green peach aphids (Myzus persicae) within a second microtitre plate is able to puncture and imbibe the solution through it.
After 5 days, the efficacy in % is determined. 100% means that all the aphids have been killed; 0% means that no aphids have been killed.

[2] = log P determination by HPLC on reversed-phase (C18) columns, OECD Guideline 117; type: physicochemical; conditions: for chromatographic logP: reversed-phase (C18) HPLC column
Description: The log P values were determined in accordance with OECD Guideline 117 (EC Directive 92/69/EEC) by HPLC (high-performance liquid chromatography) using reversed-phase (RP) columns (C18), by the following methods:
[a] The LC-MS determination in the acidic range was carried out at pH 2.7 with 0.1% aqueous formic acid and acetonitrile (contains 0.1% formic acid) as mobile phases; linear gradient from 10% acetonitrile to 95% acetonitrile.
[b] LC-MS determination in the neutral range was carried out at pH 7.8 with 0.001 molar aqueous ammonium hydrogencarbonate solution and acetonitrile as mobile phases; linear gradient from 10% acetonitrile to 95% acetonitrile.

Myzus persicae [3] = assay: Myzus persicae - spray test (Chinese cabbage leaf discs); type: in vivo; conditions: after 6 days; for pest or weed control at 500 g/ha: Myzus persicae, foliar, 144 h, read-out: efficacy in % (aphids killed)
Description: Myzus persicae—Spray Test
Solvent: 78 parts by weight of acetone • • 1.5 parts by weight of dimethylformamide
Emulsifier: alkylaryl polyglycol ether
To produce a suitable preparation of active compound, 1 part by weight of active compound is dissolved using the specified parts by weight of solvent and made up with water containing an emulsi fier concentration of 1000 ppm until the desired concentration is attained. To produce further test concentrations, the formulation is diluted with emulsifier-containing water.
Discs of Chinese cabbage leaves (Brassica pekinensis) infested by all stages of the green peach aphid (Myzus persicae) are sprayed with an active compound formulation of the desired concentration.
After 6 days, the efficacy in % is determined. 100% means that all the aphids have been killed; 0% means that no aphids have been killed.

[4] = pH 2.7, HPLC, acidic range pH 2.7, 0.1% aqueous formic acid/acetonitrile, read-out: logp-acidic
[5] = pH 7.8, HPLC, neutral range pH 7.8, 0.001 molar aqueous ammonium hydrogencarbonate/acetonitrile, read-out: logp-neutral
[6] = HPLC, acidic range pH 2.7, 0.1% aqueous formic acid/acetonitrile
[7] = HPLC, neutral range pH 7.8, 0.001 molar aqueous ammonium hydrogencarbonate/acetonitrile

| SMILES | efficacy in % (aphids killed) (Myzus persicae [1]) | logp-acidic ([2]; pH 2.7) | logp-neutral ([2]; pH 7.8) | efficacy in % (aphids killed) (Myzus persicae [3]; 500 g/ha) | also measured |
| --- | --- | --- | --- | --- | --- |
| Cc1cc(F)c(-c2ncc(C(=O)N(C)c3cccnc3)n2C)cc1SCC(F)(F)F [Example 2] | – | – | – | – | pest or weed control at 20 ppm (Myzus persicae [1]): 100%; chromatographic logP [2, 4]: 2.23; chromatographic logP [2, 5]: 2.48; pest or weed control at 500 g/ha (Myzus persicae [3]; 500 g/ha): 90% |
| CSc1cccc(-c2ncc(C(=O)N(C)c3cccnc3)n2C)c1 [Example 3] | 100% | 1.24 | 1.75 | 90% | – |
| CN(C(=O)c1cnc(-c2cccc([S+]([O-])CC(F)(F)F)c2)n1C)c1cccnc1 (stereo not shown) [Example 5] | 100% | 1.07 | 1.43 | 90% | – |
| CN(C(=O)c1cnc(-c2cccnc2)n1C)c1cccnc1 [Example 7] | – | – | – | – | pest or weed control at 20 ppm (Myzus persicae [1]): 100%; chromatographic logP [2, 4]: 0.18; pest or weed control at 500 g/ha (Myzus persicae [3]; 500 g/ha): 90% |
| Cc1cc(C)cc(-c2ncc(C(=O)N(C)c3cccnc3)n2C)c1 [Example 8] | 100% | – | – | – | logp-acidic [2, 6]: 1.16; efficacy in % (aphids killed) (Myzus persicae [3]; 100 g/ha): 90% |
| CN(C(=O)c1cnc(-c2ccccc2Cl)n1C)c1cccnc1 [Example 9] | 100% | – | – | 100% | logp-acidic [2, 6]: 1.10 |
| CN(C(=O)c1cnc(-c2cccc(Cl)c2)n1C)c1cccnc1 [Example 10] | 100% | – | – | 90% | logp-acidic [2, 6]: 1.29 |
| CN(C(=O)c1cnc(-c2ccc(Cl)c(Cl)c2)n1C)c1cccnc1 [Example 13] | 100% | – | – | 90% | logp-acidic [2, 6]: 1.79 |
| CN(C(=O)c1cnc(-c2cccn2C)n1C)c1cccnc1 [Example 14] | – | – | – | – | pest or weed control at 20 ppm (Myzus persicae [1]): 100%; chromatographic logP [2, 4]: 0.62; pest or weed control at 500 g/ha (Myzus persicae [3]; 500 g/ha): 90% |
| CN(C(=O)c1cnc(-c2ccoc2)n1C)c1cccnc1 [Example 15] | 100% | – | – | 90% | logp-acidic [2, 6]: 0.29 |
| CN(C(=O)c1cnc(-c2cccc(SC(F)(F)F)c2)n1C)c1cccnc1 [Example 17] | 100% | 2.00 | 2.28 | 90% | – |
| CN(C(=O)c1cnc(-c2cccc(SCC3CC3)c2)n1C)c1cccnc1 [Example 18] | 100% | 1.87 | 2.36 | 90% | – |
| COCc1cccc(-c2ncc(C(=O)N(C)c3cccnc3)n2C)c1 [Example 19] | 90% | – | – | 90% | logp-acidic [2, 6]: 0.86; logp-neutral [2, 7]: 1.43 |
| CN(C(=O)c1cnc(-c2cccc(COC3CCOCC3)c2)n1C)c1cccnc1 [Example 20] | – | – | – | – | chromatographic logP [2, 4]: 1.11; chromatographic logP [2, 5]: 1.57; pest or weed control at 500 g/ha (Myzus persicae [3]; 500 g/ha): 90% |
| CN(C(=O)c1cnc(-c2cccc(S(C)(=O)=O)c2)n1C)c1cccnc1 [Example 22] | 100% | 0.75 | 1.08 | 100% | – |
| CSc1cc(-c2ncc(C(=O)N(C)c3cccnc3)n2C)ccc1C [Example 23] | 100% | 1.43 | 2.03 | 100% | – |
| CN(C(=O)c1cnc(-c2cnn(-c3ccccc3C#N)c2)n1C)c1cccnc1 [Example 24] | 100% | 1.07 | 1.49 | 90% | – |
| CN(C(=O)c1cnc(-c2cnn(-c3ccc(F)cc3)c2)n1C)c1cccnc1 [Example 25] | 100% | 1.21 | 1.68 | 90% | – |
| CN(C(=O)c1cnc(-c2cnn(-c3ccccc3)c2)n1C)c1cccnc1 [Example 26] | 100% | 1.19 | 1.70 | 90% | – |
| CN(C(=O)c1cnc(-c2cccc3ccccc23)n1C)c1cccnc1 [Example 27] | 100% | 1.35 | 1.89 | 90% | – |
| COC(=O)c1cccc2c(-c3ncc(C(=O)N(C)c4cccnc4)n3C)cccc12 [Example 28] | 100% | 1.56 | 1.95 | 90% | – |

| SMILES | efficacy in % (aphids killed) (Myzus persicae [1]) | logp-acidic ([2]; pH 2.7) | logp-neutral ([2]; pH 7.8) | efficacy in % (aphids killed) (Myzus persicae [3]; 500 g/ha) | also measured |
| --- | --- | --- | --- | --- | --- |
| COC(=O)c1cc(F)ccc1-c1ncc(C(=O)N(C)c2cccnc2)n1C [Example 29] | 100% | 1.04 | 1.55 | 90% | – |
| CN(C(=O)c1cnc(-c2ccc(F)c3ccccc23)n1C)c1cccnc1 [Example 30] | 100% | 1.57 | 2.05 | 90% | – |
| CN(C(=O)c1cnc(-c2ccncc2)n1C)c1cccnc1 [Example 33] | – | – | – | – | pest or weed control at 20 ppm (Myzus persicae [1]): 100%; pest or weed control at 500 g/ha (Myzus persicae [3]; 500 g/ha): 100% |
| CCOC(=O)COc1cccc(-c2ncc(C(=O)N(C)c3cccnc3)n2C)c1 [Example 41] | – | 1.18 | 1.70 | – | – |
| CCOC(=O)COc1cc(-c2ncc(C(=O)N(C)c3cccnc3)n2C)cc(F)c1F [Example 42] | – | 1.80 | 2.02 | – | – |
| CCOC(=O)COc1cc(-c2ncc(C(=O)N(C)c3cccnc3)n2C)ccc1F [Example 43] | – | 1.44 | – | – | – |
| CC(=O)OCc1cc(-c2ncc(C(=O)N(C)c3cccnc3)n2C)ccc1F [Example 44] | 90% | 1.39 | 1.81 | 90% | – |
| CN(C(=O)c1cnc(-c2cccc(COC(=O)C3CC3)c2)n1C)c1cccnc1 [Example 45] | 90% | 1.28 | 1.86 | 90% | – |
| CN(C(=O)c1cnc(-c2ccccn2)n1C)c1cccnc1 [Example 47] | – | – | – | – | pest or weed control at 20 ppm (Myzus persicae [1]): 100%; chromatographic logP [2, 4]: 0.74; chromatographic logP [2, 5]: 1.16; pest or weed control at 500 g/ha (Myzus persicae [3]; 500 g/ha): 90% |
| CN(C(=O)c1cnc(-c2cccc(C(F)F)c2)n1C)c1cccnc1 [Example 48] | 100% | 1.22 | 1.65 | 100% | – |
| CN(C(=O)c1cnc(-c2cc(C(F)(F)F)cc(C(F)(F)F)c2)n1C)c1cccnc1 [Example 53] | 100% | 2.43 | 2.63 | 90% | – |
| CN(C(=O)c1cnc(-c2cc(F)cc(C(F)(F)F)c2)n1C)c1cccnc1 [Example 54] | 100% | 1.90 | 2.14 | 90% | – |
| COc1ccc(OC)c(-c2ncc(C(=O)N(C)c3cccnc3)n2C)c1 [Example 85] | 100% | 0.9 | – | – | – |
| COc1ccc(-c2ncc(C(=O)N(C)c3cccnc3)n2C)cc1[N+](=O)[O-] [Example 96] | – | – | – | – | logp-acidic [2, 6]: 1.2; logp-neutral [2, 7]: 1.53 |
| CSc1ccccc1-c1ncc(C(=O)N(C)c2cccnc2)n1C [Example 98] | 100% | 1.14 | 1.59 | – | – |
| CCN(C(=O)c1cncn1C)c1cccnc1 [VII-ethyl] | – | – | – | – | chromatographic logP [2, 5]: 0.78 |
| C#Cc1ncc(C(=O)N(C)c2cccnc2)n1C [XIV, 2-ethynyl-N,1-dimethyl-N-(pyridin-3-yl)-1H-imidazole-5-carboxamide] | – | – | – | – | chromatographic logP [2, 4]: 0.53; chromatographic logP [2, 5]: 0.87 |
| Cc1cc(F)c(-c2ncc(C(=O)O)n2C)cc1SCC(F)(F)F [XIX] | – | – | – | – | chromatographic logP [2, 4]: 1.83; chromatographic logP [2, 5]: 0.95 |
| CN(C(=O)c1cnc(Br)n1C)c1cccnc1 [XI] | – | – | – | – | chromatographic logP [2, 4]: 0.65; chromatographic logP [2, 5]: 0.93 |
| Cc1cc(F)c(B2OC(C)(C)C(C)(C)O2)cc1SCC(F)(F)F [XVI, 2-{2-fluoro-4-methyl-5-[(2,2,2-trifluoroethyl)sulphanyl]phenyl}-4,4,5,5-tetramethyl-1,3,2-dioxaborolane] | – | – | – | – | chromatographic logP [2, 4]: 4.89; chromatographic logP [2, 5]: 4.8 |
| COC(=O)c1cnc(-c2cc(SCC(F)(F)F)c(C)cc2F)n1C [XVIII, methyl 2-{2-fluoro-4-methyl-5-[(2,2,2-trifluoroethyl)sulphanyl]phenyl}-1-methyl-1H-imidazole-5-carboxylate] | – | – | – | – | chromatographic logP [2, 4]: 3.09; chromatographic logP [2, 5]: 3.19 |
